We go through 18 compounds from patent US11684616B2, “Azalactam compounds as HPK1 inhibitors” (PFIZER INC., priority 2020, dated 2023).

The target of the assay is human full-length autophosphorylated recombinant HPK1 (Homo sapiens (Human), UniProt Q92918). Description: HPK1 biochemical enzyme assay (chelation-enhanced fluorescence, CHEF). The settings on record: 0.5 nM HPK1, 45 μM ATP, Morrison fit. As to the method: HPK1 Biochemical Enzyme Assay
Chain of human full-length autophosphorylated recombinant HPK1 (Q92918 other isoform, or with tags, fused parts or gaps): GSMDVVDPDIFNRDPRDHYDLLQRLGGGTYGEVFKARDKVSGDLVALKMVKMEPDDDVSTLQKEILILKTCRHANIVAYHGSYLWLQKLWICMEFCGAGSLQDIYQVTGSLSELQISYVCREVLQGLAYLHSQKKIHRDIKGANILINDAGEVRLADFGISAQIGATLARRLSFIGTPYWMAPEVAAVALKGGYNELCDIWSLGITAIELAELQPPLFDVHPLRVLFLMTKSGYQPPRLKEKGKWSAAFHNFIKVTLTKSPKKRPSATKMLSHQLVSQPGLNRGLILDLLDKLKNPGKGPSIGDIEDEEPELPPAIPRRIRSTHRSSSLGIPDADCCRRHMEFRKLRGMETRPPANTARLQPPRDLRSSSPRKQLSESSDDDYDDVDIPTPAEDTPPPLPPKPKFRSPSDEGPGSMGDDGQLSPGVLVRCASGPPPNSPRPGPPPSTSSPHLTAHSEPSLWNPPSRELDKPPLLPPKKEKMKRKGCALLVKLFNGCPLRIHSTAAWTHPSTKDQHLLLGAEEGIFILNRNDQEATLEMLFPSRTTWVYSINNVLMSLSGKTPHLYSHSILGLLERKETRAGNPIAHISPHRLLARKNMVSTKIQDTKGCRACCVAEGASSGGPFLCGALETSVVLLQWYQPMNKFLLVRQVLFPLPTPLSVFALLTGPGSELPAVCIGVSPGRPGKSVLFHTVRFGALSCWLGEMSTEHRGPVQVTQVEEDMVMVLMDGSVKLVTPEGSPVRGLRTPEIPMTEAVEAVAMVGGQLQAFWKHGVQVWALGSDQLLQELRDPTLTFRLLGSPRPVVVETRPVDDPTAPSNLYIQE
HPK1 enzyme inhibition was measured by using the fluorescence-based chelation-enhanced fluorescence (CHEF) method (1), and by using a proprietary fluorescent peptide substrate, in which a cysteine residue is alkylated with a sulfonamido-oxine-based derivative to afford an amino acid termed C-Sox (CSx). […] Initial reaction velocities were determined by following the peptide fluorescence (λex=360 nm, λem=500 nm) at 30° C. for 15 min in a Tecan M1000 plate reader (Tecan Group Ltd., Mannedorf, Zurich, Switzerland).
Production of Autophosphorylated Full-Length Recombinant HPK1
The DNA sequence encoding full-length human HPK1 (Genbank NM_001042600.2) was synthesized at GenScript and contained a limited number of silent base changes to eliminate certain restriction endonuclease enzyme recognition sites, and fused to a DNA sequence encoding a Tobacco Etch Virus (TEV)-cleavable N-terminal polyhistidine purification tag. A recombinant baculovirus was prepared by using the Bac-to-Bac method (InVitrogen) and was used to infect 9 L of Sf21 insect cells. All purification steps were carried out at 4° C. Cells containing recombinant HPK1 were lysed in 50 mM HEPES-NaOH, pH 7.5, 250 mM NaCl, 1 mM tris(2-carboxyethyl)phosphine (TCEP), 10 μM leupeptin (Sigma), 10 μM E-64 (Sigma), and one ‘EDTA-free’ protease inhibitor tablet (Roche) per 75 mL buffer, centrifuged at 15,000×g for 1 h and the supernatant passed over 5 mL of ProBond IMAC resin (InVitrogen). After washing, HPK1 was eluted with 12.5 mL of 50 mM HEPES-NaOH, pH 7.5, 400 mM NaCl, 250 mM imidazole-HCl pH 7.5, 1 mM TCEP, 2 μM leupeptin, and 2 μM E-64. The eluted HPK1 was dialyzed overnight against 0.8 L of 50 mM HEPES-NaOH, pH 7.5, 400 mM NaCl, 20 mM imidazole-HCl pH 7.5, 1 mM TCEP, 2 μM leupeptin, 2 μM E-64, 2 mM ATP-NaOH pH 7.3, 5 mM MgCl2 and 1 mg TEV (this step simultaneously allows for reduction of the imidazole concentration in preparation for the subsequent reverse IMAC chromatography step, removal of the polyhistidine purification tag by TEV protease, and autophosphorylation of HPK1 in the presence of MgATP). The de-tagged and autophosphorylated HPK1 was adjusted to 40 mM imidazole-HCl, pH 7.5, and passed through a 10 mL column of ProBond resin similarly equilibrated. […] The peak fractions containing HPK1 were pooled and concentrated to approximately 2.5 mL by using a centrifugal concentrator (Millipore). The concentrated HPK1 was adjusted to 20% (v/v) glycerol by the addition of 50% (v/v) glycerol, resulting in a final formulation of 25 mM HEPES-NaOH pH 7.5, 250 mM NaCl, 0.25 mM TCEP and 20% (v/v) glycerol. […] Aliquots of the enzyme were flash frozen in liquid nitrogen and stored at −80° C. The final product contains a glycine-serine extension at the N-terminus of the full-length protein, as a result of the cloning strategy.
Usually Ki stands for the dissociation constant of the complex between target and ligand, obtained from inhibition or displacement. For `C[C@@H](N)c1nc(C2(C)CC2)cc2c1CN(c1cccc(-c3nncn3C3CCC3)n1)C2=O` (stereo in doubt) [Example 103, 4-[(1ξ)-1-aminoethyl]-2-[6-(4-cyclobutyl-4H-1,2,4-triazol-3-yl)pyridin-2-yl]-6-(1-methylcyclo-propyl)-2,3-dihydro-1H-pyrrolo[3,4-c]pyridin-1-one], the Ki was 1.38 nM.
Turning to `C[C@H](N)c1nc(C2(C)CC2)cc2c1CN(c1cccc(-c3nncn3C3CCC3)n1)C2=O` (stereo in doubt) [Example 104, 4-[(1ξ)-1-aminoethyl]-2-[6-(4-cyclobutyl-4H-1,2,4-triazol-3-yl)pyridin-2-yl]-6-(1-methylcyclo-propyl)-2,3-dihydro-1H-pyrrolo[3,4-c]pyridin-1-one], the Ki turned out to be 2.36 nM.
Turning to `CC[C@@H](N)c1nc(C2(C)CC2)cc2c1CN(c1cccc(-c3nncn3C3CCC3)n1)C2=O` (stereo in doubt) [Example 105, 4-[(1ξ)-1-aminopropyl]-2-[6-(4-cyclobutyl-4H-1,2,4-triazol-3-yl)pyridin-2-yl]-6-(1-methylcyclo-propyl)-2,3-dihydro-1H-pyrrolo[3,4-c]pyridin-1-one], the Ki was 2.01 nM.
As for `CCC(CC)n1cnnc1-c1cccc(N2Cc3c(cc(C4(C)CC4)nc3[C@H](C)N)C2=O)n1` (stereo in doubt) [Example 125, 4-[(1ξ)-1-aminoethyl]-6-(1-methyl-cyclopropyl)-2-{6-[4-(pentan-3-yl)-4H-1,2,4-triazol-3-yl]pyridin-2-yl}-2,3-dihydro-1H-pyrrolo[3,4-c]pyridin-1-one], the Ki came to 1.42 nM.
For `CCC(CC)n1cnnc1-c1cccc(N2Cc3c(cc(C4(C)CC4)nc3[C@@H](C)N)C2=O)n1` (stereo in doubt) [Example 126, 4-[(1ξ)-1-aminoethyl]-6-(1-methyl-cyclopropyl)-2-{6-[4-(pentan-3-yl)-4H-1,2,4-triazol-3-yl]pyridin-2-yl}-2,3-dihydro-1H-pyrrolo[3,4-c]pyridin-1-one], the Ki amounted to 1.78 nM.
Consider `CCN(C)c1cc2c(c([C@@H](C)N)n1)CN(c1cccc(-c3nnc(C)n3CC)n1)C2=O` (stereo in doubt) [Example 127, 4-[(1ξ)-1-aminoethyl]-6-[ethyl(methyl)amino]-2-[6-(4-ethyl-5-methyl-4H-1,2,4-triazol-3-yl)pyridin-2-yl]-2,3-dihydro-1H-pyrrolo[3,4-c]pyridin-1-one], for which the inhibitory constant (Ki) is 1.41 nM.
For `CCCn1cnnc1-c1cccc(N2Cc3c(cc(N(C)C)nc3[C@H](N)CC)C2=O)n1` (stereo in doubt) [Example 142, 4-[(1ξ)-1-aminopropyl]-6-(dimethyl-amino)-2-[6-(4-propyl-4H-1,2,4-triazol-3-yl)pyridin-2-yl]-2,3-dihydro-1H-pyrrolo[3,4-c]pyridin-1-one] the value was 1.54 nM; for `CC[C@@H](N)c1nc(N(C)C)cc2c1CN(c1cccc(-c3nncn3CC)n1)C2=O` (stereo in doubt) [Example 146, 4-[(1ξ)-1-aminopropyl]-6-(dimethyl-amino)-2-[6-(4-ethyl-4H-1,2,4-triazol-3-yl)pyridin-2-yl]-2,3-dihydro-1H-pyrrolo[3,4-c]pyridin-1-one], 3.14 nM.
As for `CC[C@H](N)c1nc(N(C)C)cc2c1CN(c1cccc(-c3nncn3CC)n1)C2=O` (stereo in doubt) [Example 147, 4-[(1ξ)-1-aminopropyl]-6-(dimethyl-amino)-2-[6-(4-ethyl-4H-1,2,4-triazol-3-yl)pyridin-2-yl]-2,3-dihydro-1H-pyrrolo[3,4-c]pyridin-1-one], the Ki is 1 nM.
Take `CCn1cnnc1-c1cccc(N2Cc3c(cc(N(C)C)nc3[C@@H](C)N)C2=O)n1` (stereo in doubt) [Example 153, 4-[(1ξ)-1-aminoethyl]-6-(dimethyl-amino)-2-[6-(4-ethyl-4H-1,2,4-triazol-3-yl)pyridin-2-yl]-2,3-dihydro-1H-pyrrolo[3,4-c]pyridin-1-one]: the Ki turned out to be 1.25 nM.
Regarding `CC[C@@H]1CCc2nnc(-c3cccc(N4Cc5c(cc(N6CCC[C@H]6C)nc5[C@@H](C)N)C4=O)n3)n21` [Example 7, 4-[(1R)-1-aminoethyl]-2-{6-[(5R)-5-ethyl-6,7-dihydro-5H-pyrrolo[2,1-c][1,2,4]triazol-3-yl]pyridin-2-yl}-6-[(2R)-2-methylpyrroli-din-1-yl]-2,3-dihydro-1H-pyrrolo[3,4-c]pyridin-1-one], the Ki worked out at 2.8 nM.
For the compound `CC[C@@H]1CCc2nnc(-c3cccc(N4Cc5c(cc(N6CCC[C@H]6C)nc5[C@H](C)N)C4=O)n3)n21` [Example 8, 4-[(1S)-1-aminoethyl]-2-{6-[(5R)-5-ethyl-6,7-dihydro-5H-pyrrolo[2,1-c][1,2,4]triazol-3-yl]pyridin-2-yl}-6-[(2R)-2-methylpyrroli-din-1-yl]-2,3-dihydro-1H-pyrrolo[3,4-c]pyridin-1-one], the Ki worked out at 5.6 nM.
As for `CC[C@@H]1CCc2nnc(-c3cccc(N4Cc5c(cc(N(C)C(C)C)nc5[C@@H](C)N)C4=O)n3)n21` [Example 12, 4-[(1R)-1-aminoethyl]-2-{6-[(5R)-5-ethyl-6,7-dihydro-5H-pyrrolo[2,1-c][1,2,4]triazol-3-yl]pyridin-2-yl}-6-[methyl(propan-2-yl)amino]-2,3-dihydro-1H-pyrrolo[3,4-c]pyridin-1-one], the inhibition constant Ki stood at 1.98 nM.
As to `CC[C@H]1CCc2nnc(-c3cccc(N4Cc5c(cc(N6CCC[C@H]6C)nc5[C@@H](N)CC)C4=O)n3)n21` [Example 15, 4-[(1S)-1-aminopropyl]-2-{6-[(5ξ)-5-ethyl-6,7-dihydro-5H-pyrrolo[2,1-c][1,2,4]triazol-3-yl]pyridin-2-yl}-6-[(2R)-2-methylpyrroli-din-1-yl]-2,3-dihydro-1H-pyrrolo[3,4-c]pyridin-1-one], the Ki was 8.47 nM.
Turning to `C[C@H](N)c1nc(N2CCC[C@H]2C)cc2c1CN(c1cccc(-c3nnc4n3[C@@H](CF)CC4)n1)C2=O` [Example 19, 4-[(1ξ)-1-aminoethyl]-2-{6-[(5R)-5-(fluoromethyl)-6,7-dihydro-5H-pyrrolo[2,1-c][1,2,4]triazol-3-yl]pyridin-2-yl}-6-[(2R)-2-methylpyrroli-din-1-yl]-2,3-dihydro-1H-pyrrolo[3,4-c]pyridin-1-one], the inhibition constant Ki turned out to be 0.15 nM.
With `C[C@@H]1CCCN1c1cc2c(c([C@@H](C)N)n1)CN(c1cccc(-c3nnc4n3[C@@H](C)CC4)n1)C2=O` [Example 24, 4-[(1ξ)-1-aminoethyl]-2-{6-[(5ξ)-5-methyl-6,7-dihydro-5H-pyrrolo[2,1-c][1,2,4]triazol-3-yl]pyridin-2-yl}-6-[(2R)-2-methylpyrroli-din-1-yl]-2,3-dihydro-1H-pyrrolo[3,4-c]pyridin-1-one], the Ki worked out at 1.76 nM.
As for `CC[C@H](N)c1nc(N2CCC[C@H]2C)cc2c1CN(c1cccc(-c3nncn3CC)n1)C2=O` [Example 141, 4-[(1S)-1-aminopropyl]-2-[6-(4-ethyl-4H-1,2,4-triazol-3-yl)pyridin-2-yl]-6-[(2R)-2-methylpyrroli-din-1-yl]-2,3-dihydro-1H-pyrrolo[3,4-c]pyridin-1-one], the figure is 0.44 nM.
In the case of `CCCn1cnnc1-c1cccc(N2Cc3c(cc(N(C)C)nc3[C@@H](N)CC)C2=O)n1` [Example 143, 4-[(1ξ)-1-aminopropyl]-6-(dimethyl-amino)-2-[6-(4-propyl-4I-1,2,4-triazol-3-yl)pyridin-2-yl]-2,3-dihydro-1I-pyrrolo[3,4-c]pyridin-1-one], the Ki was 3.73 nM.
